Measurements from patent publication US10034886B2, “GLP-1 receptor modulators” (Celgene International II SÀRL, priority 2014, dated 2018).
pEC50: −log10 of the molar value.

molecular target: T1, GLP-1R (Homo sapiens, UniProt P43220); experiment: EC20 GLP-1(9-36) PAM cAMP assay: dose response of compound in the presence of fixed concentration of GLP-1(9-36); assay type: cell-based; conditions: GLP-1R CRE-bla CHO-K1 cells, compound dose response with fixed concentration of GLP-1(9-36), read-out: EC20 GLP-1(9-36) PAM EC50
T1 construct: host or cells: GLP-1R CRE-bla CHO-K1 cells
T1 sequence (P43220 24-463): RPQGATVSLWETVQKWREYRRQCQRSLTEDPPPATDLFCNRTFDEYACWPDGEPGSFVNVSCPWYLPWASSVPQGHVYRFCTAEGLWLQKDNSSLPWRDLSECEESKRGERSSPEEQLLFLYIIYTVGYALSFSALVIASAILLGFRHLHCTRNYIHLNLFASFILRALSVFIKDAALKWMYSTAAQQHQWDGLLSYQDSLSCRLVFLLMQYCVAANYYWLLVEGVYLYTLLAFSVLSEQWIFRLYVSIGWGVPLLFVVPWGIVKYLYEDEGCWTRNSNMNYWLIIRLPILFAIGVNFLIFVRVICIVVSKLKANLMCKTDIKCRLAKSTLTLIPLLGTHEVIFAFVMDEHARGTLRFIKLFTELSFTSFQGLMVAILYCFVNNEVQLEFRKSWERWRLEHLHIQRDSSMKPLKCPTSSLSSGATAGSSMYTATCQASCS
T1 sequence (P01275 100-127 partner limits assumed): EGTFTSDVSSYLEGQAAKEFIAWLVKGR
In short: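 Positive allosteric modulation read as cAMP accumulation: compound titrations (12 points) combined with an EC20 level of GLP-1(9-36) on CHO-K1 GLP-1R CRE-bla cells, IBMX present, 30 min, 37 °C, pH 7.4 buffer. Luminescence converted to cAMP via standards; non-linear fit gave EC50 and Emax.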

Compound	pEC50
C[C@@H](NC(=O)[C@H](Cc1ccc(-c2ncc(-c3ccc(-c4ccnn4C)cc3)cn2)cc1)NC(=O)c1ccc(C(C)(C)C)s1)C(=O)O [Compound 1297]	5.30 to 5.60
C[C@@H](NC(=O)[C@H](Cc1ccc(-c2ncc(-c3ccc4c(c3)C(C)(C)c3ccccc3-4)cn2)cc1)NC(=O)c1ccc(C(C)(C)C)s1)C(=O)O [Compound 1304]	5.60 to 6.10
CC(C)(C)c1ccc(C(=O)N[C@@H](Cc2ccc(-c3ncc(-c4ccc(-c5ccc(OC(F)(F)F)cc5)cc4)cn3)cc2)C(=O)O)s1 [Compound 1356, (S)-2-(5-(tert-butyl)thiophene-2-carboxamido)-3-(4-(5-(4′-(trifluoromethoxy)-[1,1′-biphenyl]-4-yl)pyrimidin-2-yl)phenyl)propanoic acid]	> 6.10
CCOc1ccc(-c2cnc(-c3ccc(C[C@H](NC(=O)c4ccc(C(C)(C)C)s4)C(=O)O)cc3)nc2)cc1 [Compound 1349]	5.00 to 5.30
CCC[C@H]1CC[C@H](C2CCN(c3cnc(-c4ccc(C[C@H](NC(=O)[C@H]5CC[C@H](C(C)(C)C)CC5)C(=O)N5CC(C(=O)O)C5)cc4)nc3)CC2)CC1 [Compound 1527]	5.60 to 6.10

Other lines, results leading:

pEC50	Compound
> 6.10	CCCOc1ccc(-c2ccc(-c3cnc(-c4ccc(C[C@H](NC(=O)c5ccc(C(C)(C)C)s5)C(=O)N5CC(C(=O)O)C5)cc4)nc3)c(F)c2)cc1 [Compound 1331]
5.60 to 6.10	CC(C)(C)c1ccc(C(=O)N[C@@H](Cc2ccc(-c3ncc(N4CCC(c5cccc(Cl)c5)CC4)cn3)cc2)C(=O)N2CC(C(=O)O)C2)s1 [Compound 1479]

same assay, conditions: dose response of compound in presence of fixed concentration of GLP-1(9-36), GLP-1R CRE-bla CHO-K1 cells, read-out: EC20 GLP-1(9-36) PAM EC50

Compound	pEC50
CC[C@H]1CC[C@H](c2ccc(-c3cnc(-c4ccc(C[C@H](NC(=O)c5ccc(OC(C)C)cc5)C(=O)N5CC(C(=O)O)C5)cc4)nc3)cc2)CC1 [Compound 1160]	> 6.10
CCCCc1noc(-c2cnc(-c3ccc(C[C@H](NC(=O)c4ccc(C(C)(C)C)cc4)C(=O)NCCC(=O)O)cc3)nc2)n1 [Compound 743]	5.00 to 5.30
CC(C)Oc1ccc(-c2cnc(-c3ccc(C[C@H](NC(=O)c4ccc(C(C)(C)C)cc4)C(=O)NCCC(=O)O)cc3)nc2)cc1 [Compound 695]	5.30 to 5.60
CCCCCCCOc1ccc(-c2cnc(-c3ccc(C[C@H](NC(=O)c4ccc(C(C)(C)C)s4)C(=O)NC4CC(N)C4)cc3)nc2)cc1 (some centres unmarked) [Compound 603]	5.60 to 6.10
CCCCCOc1ccc(-c2cnc(-c3ccc(C[C@H](NC(=O)c4ccc(C(C)(C)C)s4)C(=O)N4CC(C(=O)O)C4)cc3)nc2)cc1 [Compound 787]	5.60 to 6.10
CCCCCCCOc1ccc(-c2cnc(-c3ccc(C[C@H](NC(=O)c4ccc(C(C)(C)C)s4)C(=O)N[C@H](C(=O)O)[C@H](O)C(C)C)cc3)nc2)cc1 [Compound 881]	5.60 to 6.10

Second part, the compound after the results:

pEC50	Compound
5.60 to 6.10	CC(C)Oc1ccc(-c2cnc(-c3ccc(C[C@H](NC(=O)c4ccc(C(C)(C)C)s4)C(=O)N4CC(C(=O)O)C4)cc3)nc2)cc1 [Compound 782]
5.60 to 6.10	CCCCCCCOc1ccc(-c2cnc(-c3ccc(C[C@H](NC(=O)c4ccc(C(C)(C)C)s4)C(=O)NC(C(=O)O)C(O)c4ccc(S(C)(=O)=O)cc4)cc3)nc2)cc1 (some centres unmarked) [Compound 655]
5.30 to 5.60	CCC/C=C\CCOc1ccc(-c2cnc(-c3ccc(C[C@H](NC(=O)c4ccc(C(C)(C)C)cc4)C(=O)NCCC(=O)O)cc3)nc2)cc1 [Compound 715]
5.60 to 6.10	CCCCCCCOc1ccc(-c2cnc(-c3ccc(C[C@H](NC(=O)c4ccc(CCCC)cc4)C(=O)N4CC(C(=O)O)C4)cc3)nc2)cc1 [Compound 1115]
5.30 to 5.60	C[C@@H](NC(=O)[C@H](Cc1ccc(-c2ncc(-c3ccc(C(=O)c4ccccc4)cc3)cn2)cc1)NC(=O)c1ccc(C(C)(C)C)s1)C(=O)O [Compound 993]
5.30 to 5.60	CC(C)c1ccc(-c2cnc(-c3ccc(C[C@H](NC(=O)c4ccc(C(C)(C)C)s4)C(=O)N[C@H](C)C(=O)O)cc3)nc2)cc1 [Compound 1034]
5.30 to 5.60	CCCCCCCOc1ccc(-c2cnc(-c3ccc(C[C@H](NC(=O)c4ccc(C(C)(C)C)s4)C(=O)NC(C(=O)O)C(O)c4cncnc4)cc3)nc2)cc1 (some centres unmarked) [Compound 904]
